Tests used:
human FLAP = human FLAP (Homo sapiens (Human), UniProt P20292); experiment: FLAP binding assay (HTRF); conditions: human FLAP-containing membranes, HTRF format; average of two assay plates, duplicates; read-out: FLAP Binding wild type HTRF Ki
How it was run: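 Averaged over two plates (duplicate wells per plate); output given as HTRF ratio.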

[1] = test system: leukotriene pathway in human whole blood (LTB4 levels); experiment: Human whole blood assay (LTB4); assay type: cell-based; conditions: human whole blood diluted 1:1 in RPMI, stimulated with calcium ionophore A23187; single replicate
How it was run: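 Blood (heparin) diluted 1:1 RPMI; compound pre-incubation 15 min, 37° Celsius; A23187 7 μg/mL, 30 min, 37° Celsius; plasma LTB4 by commercial kit. IC50 via 4-parameter equation.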

human FLAP, sequence (P20292 whole entry): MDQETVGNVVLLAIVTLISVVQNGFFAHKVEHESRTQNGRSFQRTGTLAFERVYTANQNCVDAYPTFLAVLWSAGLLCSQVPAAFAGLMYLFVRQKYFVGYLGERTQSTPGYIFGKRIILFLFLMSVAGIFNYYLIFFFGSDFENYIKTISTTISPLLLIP

| SMILES | Ki (human FLAP) | IC50 [1] |
| --- | --- | --- |
| Nc1cnc(-c2ccc(C3CCC3)c(Oc3nccc(-c4cccs4)n3)c2F)cn1 [Example 91, 5-{4-Cyclobutyl-2-fluoro-3-[(4-thiophen-2-ylpyrimidin-2-yl)oxy]phenyl}pyrazin-2-amine] | 1 nM | 4.8 nM |
| COc1ccnc(Oc2c(C3CCC3)ccc(-c3cnc(N)cn3)c2F)n1 [Example 93, 5-{4-Cyclobutyl-2-fluoro-3-[(4-methoxypyrimidin-2-yl)oxy]phenyl}pyrazin-2-amine] | 3 nM | 30.8 nM |
| COc1cnc(Oc2c(C3CCC3)ccc(-c3cnc(N)cn3)c2F)nc1 [Example 94, 5-{4-Cyclobutyl-2-fluoro-3-[(5-methoxypyrimidin-2-yl)oxy]phenyl}pyrazin-2-amine] | 27 nM | 101 nM |
| CS(=O)(=O)c1ccnc(Oc2c(C3CCC3)ccc(-c3cnc(N)cn3)c2F)n1 [Example 95, 5-(4-Cyclobutyl-2-fluoro-3-{[4-(methylsulfonyl)pyrimidin-2-yl]oxy}phenyl)pyrazin-2-amine] | 5 nM | > 1000 nM |
| Cc1cc(Oc2c(C3CCC3)ccc(-c3cnc(N)cn3)c2F)nc(N)n1 [Example 96, 4-[3-(5-aminopyrazin-2-yl)-6-cyclobutyl-2-fluorophenoxy]-6-methylpyrimidin-2-amine] | 7 nM | 33.8 nM |
| COc1cc(Oc2c(C3CCC3)ccc(-c3cnc(N)cn3)c2F)ncn1 [Example 97, 5-{4-Cyclobutyl-2-fluoro-3-[(6-methoxypyrimidin-4-yl)oxy]phenyl}pyrazin-2-amine] | 32 nM | 153 nM |
| Nc1cnc(-c2ccc(C3CCC3)c(Oc3cc(O)ncn3)c2F)cn1 [Example 98, 6-[3-(5-Aminopyrazin-2-yl)-6-cyclobutyl-2-fluorophenoxy]pyrimidin-4-ol] | 8 nM | 175 nM |
| COc1cc(Oc2c(C3CCC3)ccc(-c3cnc(N)cn3)c2F)nc(N)n1 [Example 99, 4-[3-(5-Aminopyrazin-2-yl)-6-cyclobutyl-2-fluorophenoxy]-6-methoxypyrimidin-2-amine] | 6 nM | 40.7 nM |
| COc1nc(N)cc(Oc2c(C3CCC3)ccc(-c3cnc(N)cn3)c2F)n1 [Example 100, 6-[3-(5-Aminopyrazin-2-yl)-6-cyclobutyl-2-fluorophenoxy]-2-methoxypyrimidin-4-amine] | 1 nM | 12.6 nM |
| N#Cc1ccc(Oc2c(C3CCC3)ccc(-c3cnc(N)cn3)c2F)cc1 [Example 101, 4-[3-(5-Aminopyrazin-2-yl)-6-cyclobutyl-2-fluorophenoxy]benzonitrile] | 23 nM | 914 nM |
| Nc1cnc(-c2ccc(C3CCC3)c(Oc3cccc(C(F)(F)F)n3)c2F)cn1 [Example 102, 5-(4-Cyclobutyl-2-fluoro-3-{[6-(trifluoromethyl)pyridin-2-yl]oxy}phenyl)pyrazin-2-amine] | 2 nM | 103 nM |
| COC(=O)c1ccc(Oc2c(C3CCC3)ccc(-c3cnc(N)cn3)c2F)cc1 [Example 103, Methyl 4-[3-(5-aminopyrazin-2-yl)-6-cyclobutyl-2-fluorophenoxy]benzoate] | 35 nM | 675 nM |
| Nc1cnc(-c2ccc(C3CCC3)c(Oc3ncc(C(F)(F)F)cn3)c2F)cn1 [Example 104, 5-(4-Cyclobutyl-2-fluoro-3-{[5-(trifluoromethyl)pyrimidin-2-yl]oxy}phenyl)pyrazin-2-amine] | 100 nM | 2810 nM |
| Nc1cnc(-c2ccc(C3CCC3)c(Oc3ccc(C(F)(F)F)nn3)c2F)cn1 [Example 106, 5-(4-Cyclobutyl-2-fluoro-3-{[6-(trifluoromethyl)pyridazin-3-yl]oxy}phenyl)pyrazin-2-amine] | 84 nM | 376 nM |
| COC(=O)c1ccc(Oc2c(C3CCC3)ccc(-c3cnc(N)cn3)c2F)nc1 [Example 107, Methyl 6-[3-(5-aminopyrazin-2-yl)-6-cyclobutyl-2-fluorophenoxy]pyridine-3-carboxylate] | 6.9 nM | 177 nM |
| N#Cc1ccc(Oc2c(C3CCC3)ccc(-c3cnc(N)cn3)c2F)cn1 [Example 108, 5-[3-(5-Aminopyrazin-2-yl)-6-cyclobutyl-2-fluorophenoxy]pyridine-2-carbonitrile] | 24.6 nM | 1310 nM |
| N#Cc1cc(Oc2c(C3CCC3)ccc(-c3cnc(N)cn3)c2F)ccn1 [Example 109, 4-[3-(5-Aminopyrazin-2-yl)-6-cyclobutyl-2-fluorophenoxy]pyridine-2-carbonitrile] | 8.9 nM | 308 nM |
| N#Cc1cccnc1Oc1c(C2CCC2)ccc(-c2cnc(N)cn2)c1F [Example 110, 2-[3-(5-Aminopyrazin-2-yl)-6-cyclobutyl-2-fluorophenoxy]pyridine-3-carbonitrile] | 2.4 nM | 52.2 nM |

| SMILES | Ki (human FLAP) | IC50 [1] |
| --- | --- | --- |
| N#Cc1cccc(Oc2c(C3CCC3)ccc(-c3cnc(N)cn3)c2F)n1 [Example 111, 6-[3-(5-Aminopyrazin-2-yl)-6-cyclobutyl-2-fluorophenoxy]pyridine-2-carbonitrile] | 1.9 nM | 65.4 nM |
| N#Cc1ncccc1Oc1c(C2CCC2)ccc(-c2cnc(N)cn2)c1F [Example 112, 3-[3-(5-Aminopyrazin-2-yl)-6-cyclobutyl-2-fluorophenoxy]pyridine-2-carbonitrile] | 14.8 nM | 181 nM |
| Nc1cnc(-c2ccc(C3CCC3)c(Oc3ccc(C(F)(F)F)cn3)c2F)cn1 [Example 113, 5-(4-Cyclobutyl-2-fluoro-3-{[5-(trifluoromethyl)pyridin-2-yl]oxy}phenyl)pyrazin-2-amine] | 27 nM | 608 nM |
| Nc1cnc(-c2ccc(C3CCC3)c(Oc3ccc(S(F)(F)(F)(F)F)cc3)c2F)cn1 [Example 115, 5-{4-Cyclobutyl-2-fluoro-3-[4-(pentafluoro-lambda~6~- sulfanyl)phenoxy]phenyl}pyrazin-2-amine] | 297 nM | 1110 nM |
| Nc1cnc(-c2ccc(C3CCC3)c(Oc3ncccn3)c2F)cn1 [Example 118, 5-[4-Cyclobutyl-2-fluoro-3-(pyrimidin-2-yloxy)phenyl]pyrazin-2-amine] | 10.5 nM | 65.7 nM |
| Nc1cnc(-c2ccc(C3CCC3)c(Oc3nccc(N)n3)c2F)cn1 [Example 119, 2-[3-(5-Aminopyrazin-2-yl)-6-cyclobutyl-2-fluorophenoxy]pyrimidin-4-amine] | 6 nM | 26.3 nM |
| Nc1cnc(-c2ccc(C3CCC3)c(Oc3ncccc3Cl)c2F)cn1 [Example 122, 5-{3-[(3-Chloropyridin-2-yl)oxy]-4-cyclobutyl-2-fluorophenyl}pyrazin-2-amine] | 4 nM | 460 nM |
| CS(=O)(=O)c1ccc(Oc2c(C3CCC3)ccc(-c3cnc(N)cn3)c2F)c(Cl)c1 [Example 123, 5-{3-[2-Chloro-4-(methylsulfonyl)phenoxy]-4-cyclobutyl-2-fluorophenyl}pyrazin-2-amine] | 7 nM | 4480 nM |
| Nc1cnc(-c2ccc(C3CCC3)c(Oc3ccnc(C(F)(F)F)n3)c2F)cn1 [Example 124, 5-(4-Cyclobutyl-2-fluoro-3-{[2-(trifluoromethyl)pyrimidin-4-yl]oxy}phenyl)pyrazin-2-amine] | 3 nM | 119 nM |
| Cc1cc(Oc2c(C3CCC3)ccc(-c3cnc(N)cn3)c2F)ccc1S(C)(=O)=O [Example 126, 5-{4-Cyclobutyl-2-fluoro-3-[3-methyl-4-(methylsulfonyl)phenoxy]phenyl}pyrazin-2-amine] | 10.7 nM | 406 nM |
| COc1cccnc1Oc1c(C2CCC2)ccc(-c2cnc(N)cn2)c1F [Example 129, 5-{4-Cyclobutyl-2-fluoro-3-[(3-methoxypyridin-2-yl)oxy]phenyl}pyrazin-2-amine] | 119 nM | 281 nM |
| Nc1cnc(-c2ccc(C3CCC3)c(Oc3ccnc(N)n3)c2F)cn1 [Example 130, 4-[3-(5-Aminopyrazin-2-yl)-6-cyclobutyl-2-fluorophenoxy]pyrimidin-2-amine] | 3.7 nM | 84.1 nM |
| Nc1cnc(-c2ccc(C3CCC3)c(Oc3nccc(C(F)(F)F)n3)c2F)cn1 [Example 131, 5-(4-Cyclobutyl-2-fluoro-3-{[4-(trifluoromethyl)pyrimidin-2-yl]oxy}phenyl)pyrazin-2-amine] | 5.6 nM | 67.9 nM |
| CS(=O)(=O)c1ccc(Oc2c(C3CCC3)ccc(-c3cnc(N)cn3)c2F)c(C#N)c1 [Example 132, 2-[3-(5-Aminopyrazin-2-yl)-6-cyclobutyl-2-fluorophenoxy]-5-(methylsulfonyl)benzonitrile] | 17 nM | 133 nM |
| CS(=O)(=O)c1ccc(Oc2c(C3CCC3)ccc(-c3cnc(N)cn3)c2F)cc1C(F)(F)F [Example 133, 5-{4-Cyclobutyl-2-fluoro-3-[4-(methylsulfonyl)-3-(trifluoro-methyl)phenoxy]phenyl}pyrazin-2-amine] | 10.2 nM | 79.6 nM |
| Cc1nccc(Oc2c(C3CCC3)ccc(-c3cnc(N)cn3)c2F)n1 [Example 134, 5-{4-Cyclobutyl-2-fluoro-3-[(2-methylpyrimidin-4-yl)oxy]phenyl}pyrazin-2-amine] | 6.2 nM | 39.7 nM |
| Nc1cnc(-c2ccc(C3CCC3)c(Oc3cc(N)ncn3)c2F)cn1 [Example 136, 6-[3-(5-Aminopyrazin-2-yl)-6-cyclobutyl-2-fluorophenoxy]pyrimidin-4-amine] | 3.5 nM | 45.9 nM |
| Nc1cnc(-c2ccc(C3CCC3)c(Oc3ccnc(Cl)n3)c2F)cn1 [Example 137, 5-{3-[(2-Chloropyrimidin-4-yl)oxy]-4-cyclobutyl-2-fluorophenyl}pyrazin-2-amine] | 3.7 nM | 51 nM |
